The structures appear in SMILES notation. “Also recorded” adds a separate entry of the source.

Common to all, as to type: in vivo, hamster
Data set [1] has as its system main arteriole-venule pair of the dorsal skin flap window preparation. The experiment in a line: Epidermal laser irradiation of main arteriole-venule pair after glycerol, CDOCT assessment at 24 h. The text has this:
(§1) Anhydrous glycerol was applied to the subdermal side of the dorsal skin flap window preparation. The subdermal side of the window preparation contains a well approximately 2 mm deep and 1 cm in diameter placed directly over the exposed subdermal skin. A small opening at the bottom allows the flow of glycerol out of the well. This well was filled with glycerol and continually refilled for a total time of twenty minutes. Any remaining glycerol was removed from the well at the end of twenty minutes.
In this set of experiments, three dorsal skin flap window preparations were treated with glycerol on the subdermal side of the skin. Then, the main arteriole-venule pair (such as the one labeled A and V in FIG. 3) was irradiated from the epidermal side to determine the approximate range of radiant exposures required to permanently destroy blood vessels in skin treated with glycerol. Since no published data exists for direct comparison with controls, two native hamster dorsal skin flap window preparations were irradiated from the epidermal side as well.
(§2) The skin surrounding the main arteriole-venute pair in each window preparation was first imaged using Color Doppler optical coherence tomography (CDOCT) (see FIG. 5). The skin was imaged from the subdermal side since these blood vessels are located approximately 100 μm from the subdermal surface, allowing for accurate determination of vessel flow and size characteristics. In the case of control samples (2), the vessels were irradiated from the epidermal side immediately after imaging the native skin. This was achieved by applying a single pulse from a 532 nm, 3 mm spot size, 10 ms pulse duration laser (Versapulse V, Coherent) to the skin without altering its position relative to the CDOCT sample probe. The experimental setup is illustrated in FIG. 5.
The skin was imaged again to assess changes to blood flow. […] If any changes in flow or vessel size were observed, the skin was not irradiated again and was imaged after 24 hours. In all, 5 pulses were delivered ranging in radiant exposure from 4.13 J/cm^2 to 16 J/cm^2, the maximum allowable for the laser parameters used. In the second control sample, only a single pulse was delivered with a radiant exposure of 12 J/cm^2.
(§3) In the other three samples, glycerol was applied to the subdermal side of the window preparation for twenty minutes after imaging the native skin with CDOCT. The optically cleared skin was then imaged again using CDOCT. Laser pulses were applied in the same manner described above and the skin was re-imaged after twenty-four hours to assess if permanent vessel closure occurred.

The subject of data set [2] is blood vessels (arterioles and venules) in skin. The experiment in a line: Effect of glycerol applied to the subdermal side of skin on blood flow (dorsal skin flap window preparation, CDOCT imaging). On the procedure:
Hamsters were anesthetized with a 4:3 mixture of Ketamine (20 mg/ml):Rompun (100 mg/ml) and 0.15 ml/100 g body weight of the solution was delivered IP. […] This in vivo model allows the simultaneous observation of the epidermal and subdermal sides of the skin while maintaining hydration and function [Papenfuss et al., 1979]. The preparation has been used as an in vivo model for optical imaging blood vessels on the subdermal side of skin while maintaining access to the epidermis [Barton et al., 1998, Vargas et al., 2001].
The preparation includes shaving and epilating the entire dorsal area of a hamster. The skin is pulled away from the body along the dorsal midline and sutured to a vertical c-clamp. A circular region 1 cm in diameter is cut from one single thickness of skin, exposing the subdermal side of the opposing thickness of skin. An aluminum chamber is sutured to both sides of the skin, and glass is placed over the cutout section to prevent the tissue from dehydrating on the subdermal side. During the experiments, this glass is removed for improved imaging, and hydration is maintained with application of physiological saline.
Blood vessels in the skin of the dorsal window preparation are located in the subdermal fat and connective tissue layers approximately 400-700 μm beneath the epidermal surface and about 80-100 μm from the exposed subdermal surface of a 100 g hamster. Arterioles and venules in the dorsal window preparation range in diameter between about 50-500 μm in inner diameter, with the main arteriole and venule about 350-500 μm in diameter.
as §1, §2, §3

Data set [3] relates to arterioles and venules of the dorsal skin flap window preparation. The experiment in a line: Subdermal (direct) laser irradiation of blood vessels after glycerol, RE50 for permanent coagulation. The following applies: 532 nm, 10 ms pulse, 3 mm spot, versus published native skin values [Barton et al., 1998].
Source text: as §1

In the case of `OCC(O)CO` [glycerol], in data set [1] (glycerol twenty minutes, arteriole 250 μm, venule 300 μm, 450 μm from epidermal surface, skin hydrated), the “vessel outcome 24 h after single pulse of 1.6 J/cm^2” value is recorded as “Permanent coagulation has been achieved in both blood vessels; also recorded: flow has not returned to either vessel”. In data set [1] (glycerol, 200 μm arteriole and 410 μm venule), the “vessel outcome after radiant exposure of 4.13 J/cm^2” value is on record as “successful permanent coagulation”. Moreover, in data set [1] (glycerol, 300 μm arteriole and 390 μm venule), the “vessel outcome after radiant exposure of 4.95 J/cm^2” value is given as “only the venule was successfully coagulated”. The “lowest radiant exposure that successfully destroyed blood vessels” value in data set [1] (three window preparations, glycerol before irradiation from the epidermal side, 532 nm, 10 ms, 3 mm spot) is listed as 1.6 J/cm^2. For the same compound, the “permanent vessel damage from agent alone” value in data set [2] (addition of agent to blood vessels, no laser) is “did not result in any permanent vessel damage”. Besides, the flow in arterioles entry in data set [2] (glycerol added to subdermal side of skin, prolonged periods of exposure) is “flow in arterioles ceased as well”. The flow in venules result in data set [2] (glycerol added to subdermal side of skin, within twenty minutes, venules approximately 100-400 μm in diameter) is “ceased”. Moreover, the “flow in arteriole and venule (Doppler image)” value in data set [2] (glycerol for twenty minutes, arteriole 250 μm, venule 300 μm, imaged from subdermal side) is reported as “no flow remains; also recorded: flow does not remain in either the arteriole or venule”. Also, the “flow in arterioles and venules after hydration (reversibility)” value in data set [2] (skin hydrated in physiologic saline solution after glycerol) is “returned to physiologic values; also recorded: upon hydration the skin and blood vessels return to their native state”. Besides, in data set [3], the “reduction of radiant exposure required for permanent vessel destruction, arterioles” value turned out to be 10 factor and the “reduction of radiant exposure required for permanent vessel destruction, venules” value is listed as 5-8 factor.

For the origin of these results see patent US6942663B2, “Laser treatment of cutaneous vascular lesions” (Board of Regents, The University of Texas System, priority 2002, dated 2005).
